Experimental data published in doi:10.1101/2023.04.05.535794v1 (biorxiv, 2023).

Columns and labels:
Assay in all cases: fluorogenic peptide-amc hydrolysis, dose-response over […] h
Type in all cases: biochemical
[1] = target: T1, Tv20S β5 (T. vaginalis 20S proteasome, β5 site) (Trichomonas vaginalis, UniProt A2DD57)
T1 sequence (A2DD57 54-256): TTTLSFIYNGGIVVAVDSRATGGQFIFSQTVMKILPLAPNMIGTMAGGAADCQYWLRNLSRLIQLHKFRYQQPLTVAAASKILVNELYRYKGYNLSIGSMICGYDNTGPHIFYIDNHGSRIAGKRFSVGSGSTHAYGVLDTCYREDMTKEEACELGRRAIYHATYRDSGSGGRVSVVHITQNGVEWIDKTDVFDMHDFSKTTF

[2] = target: T2, Tv20S β2 (T. vaginalis 20S proteasome, β2 site) (Trichomonas vaginalis, UniProt A2F2T6)
T2 sequence (A2F2T6 32-275): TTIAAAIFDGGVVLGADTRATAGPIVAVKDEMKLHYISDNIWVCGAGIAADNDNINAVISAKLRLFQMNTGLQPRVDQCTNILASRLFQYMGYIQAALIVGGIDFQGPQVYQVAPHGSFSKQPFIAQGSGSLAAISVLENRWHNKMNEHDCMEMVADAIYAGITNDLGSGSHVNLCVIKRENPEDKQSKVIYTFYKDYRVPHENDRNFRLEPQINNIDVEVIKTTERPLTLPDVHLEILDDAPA

[3] = target: T3, Tv20S β1 (T. vaginalis 20S proteasome, β1 site) (Trichomonas vaginalis, UniProt A2E7Z2)
T3 sequence (A2E7Z2 13-216): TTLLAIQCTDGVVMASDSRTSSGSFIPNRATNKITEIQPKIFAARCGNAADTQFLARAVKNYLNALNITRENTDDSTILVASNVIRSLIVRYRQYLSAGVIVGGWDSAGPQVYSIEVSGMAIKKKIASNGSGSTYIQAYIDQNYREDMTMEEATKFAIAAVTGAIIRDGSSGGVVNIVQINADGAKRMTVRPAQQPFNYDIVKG

IC50 [1]	IC50 [2]	IC50 [3]	SMILES
78.4 ± 17.3 nM	372 ± 92.1 nM	–	CC(C)C[C@H](NC(=O)[C@H](CCc1ccccc1)NC(=O)CN1CCOCC1)C(=O)N[C@@H](Cc1ccccc1)C(=O)N[C@@H](CC(C)C)C(=O)[C@@]1(C)CO1 [carfilzomib]
34.1 ± 5.4 nM	–	270 ± 97.1 nM	CC(C)C[C@H](NC(=O)CNC(=O)c1cc(Cl)ccc1Cl)B(O)O [ixazomib]
